Here are results for 1 compound from patent publication US20080248134A1, “Oral compositions, use and combinations of N-[2-(dimethylamino)ethyl]-2,6 dimethyl-1-oxo-1,2-dihydrobenzo[b]-1,6-naphthyridine-4-carboxamide and closely related analogues thereof” (Auckland Uniservices Limited, priority 2005, published 2008).

Where two headings read alike, the source gives them in different places.

The subject of data set [1] is AuxB1. Put plainly: In vitro susceptibility to multidrug resistance, continuous exposure IC50. The format is cell-based, Chinese Hamster. Particulars: Cricetulus griseus, AuxB1 (no multidrug resistance). The procedure: (§1) Multidrug resistance mediated by p-glycoprotein and related transport proteins is an important means by which cancer cells evade cytotoxic drugs. […] IC50 values of several drugs were measured in continuous exposure assays in these two cell lines. The resistance factor was calculated as the ratio of these values. High values indicate high susceptibility to resistance.

Data set [2] concerns CHrC5. Described as above. It is filed as cell-based, Chinese Hamster. Here is the method: as §1
The subject of data set [3] is Lewis lung. The data set can be described thus: Murine Lewis lung tumour growth delay. The format is in vivo. The note with it: intraperitoneal dose of 8.9 mg/kg. Here is the method:
In addition, the compound of Formula II, by way of an intraperitoneal dose of 8.9 mg/kg, induced a growth delay of 8.5 days in a murine tumour (Lewis lung) that is also used extensively in drug development programmes.

Data set [4] relates to HCT116. The data set can be described thus: Human tumour xenograft. The format is in vivo. On the set-up: key to Activity: Active: NCI Criterion for activity tumour volume T/C ≦ 40%; Inactive: NCI Criterion for activity tumour volume T/C ≦ 40%. The note with it: HCT116, Colon. Here is the method: (§2) The compound of Formula II was evaluated in a number of xenografts using cell lines derived from cervical, endometrial, lung and colon carcinomas, leukaemia and melanoma (Table 3). These studies indicate that the compound according to the present invention has significant activity in xenografts.

Data set [5] relates to NZMp2. The data set can be described thus: Human tumour xenograft. On the set-up: key to Activity: Active: NCI Criterion for activity tumour volume T/C ≦ 40%; Inactive: NCI Criterion for activity tumour volume T/C ≦ 40%. The format is in vivo. Particulars: NZMp2, Melanoma. The procedure:
as §2
Background: Xenograft models place foreign cells or tissue in a host animal.

Data set [6] is described as follows: Plasma pharmacokinetics. The note with it: for AUC: read-out: area under the plasma concentration-time profile for the first 8 hours (AUC). It is filed as in vivo, mice. Here is the method: The plasma pharmacokinetics of the compound of Formula II, were compared following intravenous, intraperitoneal and oral administration at a dose of 8.9 mg/kg (26 μmol/kg). Mice were terminally anaesthetised at various times up to 8 hours after drug administration and blood was taken for preparation of plasma samples. Plasma concentrations of the compound of Formula II were measured by high performance liquid chromatography-mass spectrophometry. The results are shown in FIG. 6, the vertical bars showing the standard deviation of the mean values from three mice per time point.
As expected from the rate of gastric emptying, the initial increase in plasma and liver drug concentrations occur later after oral administration than they do after intravenous or intraperitoneal administration, but the plasma and tissue half-lives are similar.

Setting [7] is: intraperitoneal administration, 8.9 mg/kg, mice.
The mark [8] stands for this setting: intravenous administration, 8.9 mg/kg, mice.

With `Cc1cccc2cc3c(=O)n(C)cc(C(=O)NCCN(C)C)c3nc12` [Formula II, N-[2-(dimethylamino)ethyl]-2,6 dimethyl-1-oxo-1,2-dihydrobenzo[b]-1,6-naphthyridine-4-carboxamide], the IC50 (commonly the concentration needed to halve the response being measured) in data set [1] was found to be 3.5 nM; in data set [2] (Cricetulus griseus, CHrC5 (multidrug resistant), continuous exposure), 5.2 nM. In data set [2] (ratio of IC50 values in CHrC5 and AuxB1), the Resistance factor was determined as 1.5. For the same compound, the growth delay in data set [3] is reported as 8.5 days. Besides, the values for the Activity result in data set [4] and in data set [5] were “Inactive” and “Active”, respectively. For the same compound, the “% control” value turned out to be 70% in data set [4] (P53 W.T., tumour volume T/C) and 22% in data set [5] (tumour volume T/C). Besides, the “time-concentration profiles (plasma and liver) for the different routes of administration” value in data set [6] (i.p., i.v. and p.o., non tumour bearing mice) is recorded as “quite comparable”. Moreover, the maximum plasma concentration in data set [6] (setting [7]) turned out to be 0.57 µM; in data set [6] (setting [8]), 1.24 µM; in data set [6] (oral administration, 8.9 mg/kg (26 μmol/kg), mice), 0.27 µM. Besides, the “time at which maximum plasma concentration achieved” value is 0.5 h in data set [6] (setting [7]); 0.08 h in data set [6] (setting [8]); 2 h in data set [6] (oral administration, 8.9 mg/kg, mice). For the same compound, the AUC in data set [6] (mouse, plasma, ip, intraperitoneal administration, 8.9 mg/kg, mice) was determined as 1.63 µM·h; in data set [6] (mouse, plasma, intravenous administration, 8.9 mg/kg, mice), 1.99 µM·h; in data set [6] (mouse, plasma, oral administration, 8.9 mg/kg, mice), 1.03 µM·h. In addition, the bioavailability in data set [6] (mouse, plasma, oral, relative to intraperitoneal administration, 8.9 mg/kg, mice, read-out: bioavailability following oral administration) stood at 63%. Moreover, in data set [6] (mouse, plasma, all three routes of administration (i.v., i.p., oral), 8.9 mg/kg, mice, read-out: terminal plasma half life (converted)), the half-life (usually the time needed for the level to fall by half in the phase considered) is roughly 3.5 h.
